From US10477864B2, “Microbiocidal quinoline (thio)carboxamide derivatives” (priority 2016, dated 2019)

Columns and labels:
[1] = tested on: Botryotinia fuckeliana (Botrytis cinerea); test: Botryotinia fuckeliana (Botrytis cinerea) / liquid culture (gray mould); assay type: cell-based; conditions: 72 h, read-out: control of Botryotinia fuckeliana
[2] = tested on: Magnaporthe grisea (Pyricularia oryzae); test: microbe, parasite or virus in culture; assay type: cell-based; conditions: 72 h, read-out: control of Magnaporthe grisea
Fusarium culmorum [3] = test: microbe, parasite or virus in culture; assay type: cell-based; conditions: read-out: control of Fusarium culmorum
Fusarium culmorum [4] = test: whole plant or invertebrate; assay type: in vivo; conditions: in Triticum aestivum, read-out: control of Fusarium culmorum
[5] = tested on: Glomerella lagenarium (Colletotrichum lagenarium); test: Glomerella lagenarium (Colletotrichum lagenarium) / liquid culture (anthracnose); assay type: cell-based; conditions: Colletotrichum orbiculare; read-out: control of Glomerella lagenarium
[6] = tested on: Monographella nivalis (Microdochium nivale); test: Monographella nivalis (Microdochium nivale) / liquid culture (foot rot cereals); assay type: cell-based; conditions: 96 h, read-out: control of Monographella nivalis

`O=C(NC(CCC(F)(F)F)Cc1ccccc1)c1cnc2c(F)cccc2c1` (stereo not drawn) [Compound E-16, N-(1-benzyl-4,4,4-trifluoro-butyl)-8-fluoro-quinoline-3-carboxamide] gave an inhibition of growth at 200 ppm [1] of no less than 80%, a melting point of 157 to 161 °C and an inhibition of growth at 200 ppm [2] of no less than 80%. The inhibition of growth at 200 ppm (Fusarium culmorum [3]) was no less than 80% and the pest or weed control at 200 ppm (Fusarium culmorum [4]) was no less than 80%.

In the case of `CC(C)CC(C)(Cc1ccc(C#N)cc1)NC(=O)c1cnc2c(F)cccc2c1` (stereo not drawn) [Compound E-32, N-[1-[(4-cyanophenyl)methyl]-1,3-dimethyl-butyl]-8-fluoro-quinoline-3-carboxamide], the inhibition of growth at 200 ppm [1] was no less than 80%, the inhibition of growth at 200 ppm [5] was no less than 80% and the melting point was 67 to 69 °C. The inhibition of growth at 200 ppm [2] was no less than 80% and the inhibition of growth at 200 ppm (Fusarium culmorum [3]) was no less than 80%.

Work on `CC(C)CC(C)(Cc1ccccc1C#N)NC(=O)c1cnc2c(F)cccc2c1` (stereo not drawn) [Compound E-44, N-[1-[(2-cyanophenyl)methyl]-1,3-dimethyl-butyl]-8-fluoro-quinoline-3-carboxamide] yielded an inhibition of growth at 200 ppm [1] of no less than 80%, an inhibition of growth at 200 ppm [5] of no less than 80% and a melting point of 43 to 44 °C. It also gave an inhibition of growth at 200 ppm [2] of no less than 80%, an inhibition of growth at 200 ppm (Fusarium culmorum [3]) of no less than 80% and a pest or weed control at 200 ppm (Fusarium culmorum [4]) of no less than 80%.

Compound `CC(F)(F)CC(C)(Cc1ccccc1)NC(=O)c1cnc2c(F)cccc2c1` (stereo not drawn) [Compound E-50, N-(1-benzyl-3,3-difluoro-1-methyl-butyl)-8-fluoro-quinoline-3-carboxamide] has an inhibition of growth at 200 ppm [1] of no less than 80%, an inhibition of growth at 200 ppm [5] of no less than 80% and an inhibition of growth at 200 ppm [2] of no less than 80%. It also gave an inhibition of growth at 200 ppm (Fusarium culmorum [3]) of no less than 80% and a pest or weed control at 200 ppm (Fusarium culmorum [4]) of no less than 80%.

`C=C(C)CC(C)(NC(=O)c1cnc2c(F)cccc2c1)C(F)(F)c1ccccc1` (stereo not drawn) [Compound E-51, N-[1-[difluoro(phenyl)methyl]-1,3-dimethyl-but-3-enyl]-8-fluoro-quinoline-3-carboxamide] gave an inhibition of growth at 200 ppm [1] of no less than 80%, an inhibition of growth at 200 ppm [5] of no less than 80% and an inhibition of growth at 200 ppm [2] of no less than 80%. The inhibition of growth at 200 ppm (Fusarium culmorum [3]) was no less than 80% and the pest or weed control at 200 ppm (Fusarium culmorum [4]) was no less than 80%.

Work on `CC(F)(F)CC(C)(Cc1ccccc1)NC(=O)c1cnc2ccccc2c1` (stereo not drawn) [Compound E-52, N-(1-benzyl-3,3-difluoro-1-methyl-butyl)quinoline-3-carboxamide] yielded an inhibition of growth at 200 ppm [1] of no less than 80%, an inhibition of growth at 200 ppm [5] of no less than 80% and a melting point of 131 to 133 °C. The inhibition of growth at 200 ppm [2] was no less than 80%, the inhibition of growth at 200 ppm (Fusarium culmorum [3]) was no less than 80% and the pest or weed control at 200 ppm (Fusarium culmorum [4]) was no less than 80%.

`CC(Cc1ccccc1)(CC(F)(F)F)NC(=O)c1cnc2c(C#N)cccc2c1` (stereo not drawn) [Compound E-62, N-(1-benzyl-3,3,3-trifluoro-1-methyl-propyl)-8-cyano-quinoline-3-carboxamide] gave an inhibition of growth at 200 ppm [1] of no less than 80%, an inhibition of growth at 200 ppm [5] of no less than 80% and a melting point of 175 to 179 °C. The inhibition of growth at 200 ppm [2] was no less than 80%, the inhibition of growth at 200 ppm (Fusarium culmorum [3]) was no less than 80% and the pest or weed control at 200 ppm (Fusarium culmorum [4]) was no less than 80%.

Compound `CC(C)CC(C)(Cc1ccccc1)NC(=O)c1cnc2cc(Cl)ccc2c1` (stereo not drawn) [Compound E-65, N-(1-benzyl-1,3-dimethyl-butyl)-7-chloro-quinoline-3-carboxamide] has an inhibition of growth at 200 ppm [1] of no less than 80%, a melting point of 172 to 174 °C and an inhibition of growth at 200 ppm [2] of no less than 80%. It also gave an inhibition of growth at 200 ppm (Fusarium culmorum [3]) of no less than 80%.

For `CC(Cc1ccc(F)cc1)(CC(F)(F)F)NC(=O)c1cnc2c(F)cccc2c1` (stereo not drawn) [Compound E-66, 8-fluoro-N-[3,3,3-trifluoro-1-[(4-fluorophenyl)methyl]-1-methyl-propyl]quinoline-3-carboxamide], the inhibition of growth at 200 ppm [1] was no less than 80%, the inhibition of growth at 200 ppm [5] was no less than 80% and the melting point was 146 to 147 °C. The inhibition of growth at 200 ppm [2] was no less than 80%, the inhibition of growth at 200 ppm (Fusarium culmorum [3]) was no less than 80% and the pest or weed control at 200 ppm (Fusarium culmorum [4]) was no less than 80%.

With `CC(Cc1cccc(F)c1)(CC(F)(F)F)NC(=O)c1cnc2c(F)cccc2c1` (stereo not drawn) [Compound E-99, 8-fluoro-N-[3,3,3-trifluoro-1-[(3-fluorophenyl)methyl]-1-methyl-propyl]quinoline-3-carboxamide] the inhibition of growth at 200 ppm [1] was no less than 80%, the inhibition of growth at 200 ppm [5] was no less than 80% and the melting point was 149 to 151 °C. It also gave an inhibition of growth at 200 ppm (Fusarium culmorum [3]) of no less than 80%, a pest or weed control at 200 ppm (Fusarium culmorum [4]) of no less than 80% and an inhibition of growth at 200 ppm [6] of no less than 80%.

`C=C(C)CC(COC)(Cc1ccccc1)NC(=O)c1cnc2c(F)cccc2c1` (stereo not drawn) [Compound E-103, N-[1-benzyl-1-(methoxymethyl)-3-methyl-but-3-enyl]-8-fluoro-quinoline-3-carboxamide] showed an inhibition of growth at 200 ppm [1] of no less than 80%, an inhibition of growth at 200 ppm [5] of no less than 80% and a melting point of 147 to 149 °C. It also gave an inhibition of growth at 200 ppm (Fusarium culmorum [3]) of no less than 80%, a pest or weed control at 200 ppm (Fusarium culmorum [4]) of no less than 80% and an inhibition of growth at 200 ppm [6] of no less than 80%.

For `CC(Cc1ccccc1)(CC1CCC1)NC(=O)c1cnc2c(F)cccc2c1` (stereo not drawn) [Compound E-112, N-(1-benzyl-2-cyclobutyl-1-methyl-ethyl)-8-fluoro-quinoline-3-carboxamide], the inhibition of growth at 200 ppm [1] was no less than 80%, the inhibition of growth at 200 ppm [5] was no less than 80% and the melting point was 125 to 127 °C. For the same compound, the inhibition of growth at 200 ppm (Fusarium culmorum [3]) was no less than 80% and the inhibition of growth at 200 ppm [6] was no less than 80%.

In the case of `COC(C)(C)CC(C)(Cc1ccccc1)NC(=O)c1cnc2c(F)cccc2c1` (stereo not drawn) [Compound E-118, N-(1-benzyl-3-methoxy-1,3-dimethyl-butyl)-8-fluoro-quinoline-3-carboxamide], the inhibition of growth at 200 ppm [1] was no less than 80%, the inhibition of growth at 200 ppm [5] was no less than 80% and the melting point was 118 to 120 °C. For the same compound, the inhibition of growth at 200 ppm (Fusarium culmorum [3]) was no less than 80% and the inhibition of growth at 200 ppm [6] was no less than 80%.

For `COc1ccc2cc(C(=O)NC(C)(Cc3ccccc3)CC(C)C)cnc2c1` (stereo not drawn) [Compound E-122, N-(1-benzyl-1,3-dimethyl-butyl)-7-methoxy-quinoline-3-carboxamide], the melting point was 136 to 138 °C and the inhibition of growth at 200 ppm [6] was no less than 80%.

Compound `COc1cccc2cc(C(=O)NC(C)(Cc3ccccc3)CC(C)C)cnc12` (stereo not drawn) [Compound E-123, N-(1-benzyl-1,3-dimethyl-butyl)-8-methoxy-quinoline-3-carboxamide] has an inhibition of growth at 200 ppm [1] of no less than 80%, a melting point of 155 to 156 °C and an inhibition of growth at 200 ppm (Fusarium culmorum [3]) of no less than 80%. For the same compound, the inhibition of growth at 200 ppm [6] was no less than 80%.

With `C=C(C)C[C@](C)(Cc1ccccc1)NC(=O)c1cnc2c(F)c(F)ccc2c1` [Compound F-20, N-[(1R)-1-benzyl-1,3-dimethyl-but-3-enyl]-7,8-difluoro-quinoline-3-carboxamide] the inhibition of growth at 200 ppm [1] was no less than 80%, the inhibition of growth at 200 ppm [5] was no less than 80% and the inhibition of growth at 200 ppm (Fusarium culmorum [3]) was no less than 80%. For the same compound, the pest or weed control at 200 ppm (Fusarium culmorum [4]) was no less than 80% and the inhibition of growth at 200 ppm [6] was no less than 80%.

`CC(C)(F)C[C@@](C)(Cc1ccccc1)NC(=O)c1cnc2c(F)cccc2c1` [Compound F-23, N-[(1R)-1-benzyl-3-fluoro-1,3-dimethyl-butyl]-8-fluoro-quinoline-3-carboxamide] showed an inhibition of growth at 200 ppm [1] of no less than 80%, an inhibition of growth at 200 ppm [5] of no less than 80% and an inhibition of growth at 200 ppm (Fusarium culmorum [3]) of no less than 80%. It also gave a pest or weed control at 200 ppm (Fusarium culmorum [4]) of no less than 80% and an inhibition of growth at 200 ppm [6] of no less than 80%.

Work on `CC(F)(F)C[C@](C)(Cc1ccccc1)NC(=O)c1cnc2ccccc2c1` [Compound F-25, N-[(1S)-1-benzyl-3,3-difluoro-1-methyl-butyl]quinoline-3-carboxamide] yielded an inhibition of growth at 200 ppm [1] of no less than 80%, an inhibition of growth at 200 ppm [5] of no less than 80% and an inhibition of growth at 200 ppm (Fusarium culmorum [3]) of no less than 80%. It also gave a pest or weed control at 200 ppm (Fusarium culmorum [4]) of no less than 80% and an inhibition of growth at 200 ppm [6] of no less than 80%.

Compound `Cc1cccc2cc(C(=O)N[C@@](C)(Cc3ccccc3)CC(F)(F)F)cnc12` [Compound F-27, N-[(1S)-1-benzyl-3,3,3-trifluoro-1-methyl-propyl]-8-methyl-quinoline-3-carboxamide] has an inhibition of growth at 200 ppm [1] of no less than 80%, an inhibition of growth at 200 ppm [5] of no less than 80% and an inhibition of growth at 200 ppm (Fusarium culmorum [3]) of no less than 80%. It also gave a pest or weed control at 200 ppm (Fusarium culmorum [4]) of no less than 80% and an inhibition of growth at 200 ppm [6] of no less than 80%.

`Cc1c(C(=O)N[C@@](C)(Cc2ccccc2)CC(F)(F)F)cnc2c(F)cccc12` [Compound F-29, N-[(1S)-1-benzyl-3,3,3-trifluoro-1-methyl-propyl]-8-fluoro-4-methyl-quinoline-3-carboxamide] gave an inhibition of growth at 200 ppm [1] of no less than 80%, an inhibition of growth at 200 ppm [5] of no less than 80% and an inhibition of growth at 200 ppm (Fusarium culmorum [3]) of no less than 80%. For the same compound, the pest or weed control at 200 ppm (Fusarium culmorum [4]) was no less than 80% and the inhibition of growth at 200 ppm [6] was no less than 80%.

Compound `C[C@](Cc1ccccc1)(CC(F)F)NC(=O)c1cnc2c(F)cccc2c1` [Compound F-32, N-[(1S)-1-benzyl-3,3-difluoro-1-methyl-propyl]-8-fluoro-quinoline-3-carboxamide] has an inhibition of growth at 200 ppm [1] of no less than 80%, an inhibition of growth at 200 ppm [5] of no less than 80% and an inhibition of growth at 200 ppm (Fusarium culmorum [3]) of no less than 80%. It also gave a pest or weed control at 200 ppm (Fusarium culmorum [4]) of no less than 80% and an inhibition of growth at 200 ppm [6] of no less than 80%.

Compound `C[C@](Cc1ccccc1)(CC(F)(F)F)NC(=O)c1cnc2c(F)c(F)ccc2c1` [Compound F-37, N-[(1S)-1-benzyl-3,3,3-trifluoro-1-methyl-propyl]-7,8-difluoro-quinoline-3-carboxamide] has an inhibition of growth at 200 ppm [1] of no less than 80%, an inhibition of growth at 200 ppm [5] of no less than 80% and an inhibition of growth at 200 ppm [2] of no less than 80%. It also gave an inhibition of growth at 200 ppm (Fusarium culmorum [3]) of no less than 80% and a pest or weed control at 200 ppm (Fusarium culmorum [4]) of no less than 80%.

In the case of `C[C@@](Cc1ccccc1)(CC(F)(F)F)NC(=O)c1cnc2c(F)c(F)ccc2c1` [Compound F-38, N-[(1R)-1-benzyl-3,3,3-trifluoro-1-methyl-propyl]-7,8-difluoro-quinoline-3-carboxamide], the inhibition of growth at 200 ppm [1] was no less than 80%, the inhibition of growth at 200 ppm [5] was no less than 80% and the inhibition of growth at 200 ppm [2] was no less than 80%. The inhibition of growth at 200 ppm (Fusarium culmorum [3]) was no less than 80%.

Compound `CC(F)(F)C[C@@](C)(Cc1ccccc1)NC(=O)c1cnc2c(F)cccc2c1` [Compound F-40, N-[(1R)-1-benzyl-3,3-difluoro-1-methyl-butyl]-8-fluoro-quinoline-3-carboxamide] has an inhibition of growth at 200 ppm [1] of no less than 80%, an inhibition of growth at 200 ppm [5] of no less than 80% and an inhibition of growth at 200 ppm [2] of no less than 80%. For the same compound, the inhibition of growth at 200 ppm (Fusarium culmorum [3]) was no less than 80% and the pest or weed control at 200 ppm (Fusarium culmorum [4]) was no less than 80%.
